Here are results for 3 compounds from ChEMBL document CHEMBL1148133, “New diterpene glycosides of the fungus Acremonium striatisporum isolated from a sea cucumber” (J Nat Prod, 2002).

In brackets after ≈: the same amount, converted by molar mass.

What is called IC50 is the concentration at which inhibition is half-maximal.

Assay [1] in a line: Cytotoxicity against mouse EAC. It counts as functional, cell-based. To be noted: Ehrlich.
Assay [2] in a line: Cytotoxicity against Strongylocentrotus intermedius developing egg. The class given is functional.

In assay [1], `C=C[C@]1(C)C=C2[C@H](O)C[C@@H]3[C@](C)(CC[C@H](O)[C@]3(C)CO[C@@H]3O[C@H](CO)[C@@H](O)[C@@H](O)[C@@H]3O)[C@H]2CC1` [VIRESCENOSIDE O] showed an IC50 of 20 µM.
The same measure, in the same setting: as for `C=C[C@@]1(C)CC[C@H]2C(=CC[C@@H]3[C@]2(C)CC[C@H](O)[C@]3(C)CO[C@@H]2O[C@H](CO)[C@@H](O)[C@H](O)[C@@H]2O)C1` [VIRESCENOSIDE Q], the figure is 20 µM.
`C=C[C@@]1(C)CCC2=C(C1)C(=O)C[C@H]1[C@@](C)(CO[C@@H]3O[C@H](CO)[C@@H](O)[C@@H](O)[C@@H]3O)[C@@H](O)CC[C@]21C` [VIRESCENOSIDE P] showed an MIC in assay [2] of 5 µM (≈ 2.4 µg/mL). The IC50 in assay [1] turned out to be 20 µM.
